Patent US20140235533A1, “DIHYDROFURAN DERIVATIVES AS INSECTICIDAL COMPOUNDS” (SYNGENTA PARTICIPATIONS AG, priority 2011, published 2014)

Tests used:
Type in all cases: in vivo
Heliothis virescens = Heliothis virescens (tobacco budworm) egg test on artificial diet; settings: 96 h, 200 ppm (concentration in well 18 ppm), eggs 0-24 h old on artificial diet, egg mortality, larval mortality, growth regulation after 4 days
Description: Heliothis virescens (Tobacco Budworm):
Eggs (0-24 h old) were placed in 24-well microtiter plate on artificial diet and treated with test solutions at an application rate of 200 ppm (concentration in well 18 ppm) by pipetting. After an incubation period of 4 days, samples were checked for egg mortality, larval mortality, and growth regulation. The following compound gave at least 80% control of Heliothis virescens: A1, A2, A03, A05, A06, A07, A08, A09, A10, A11, A12, A13, A14, A15, A16, A17, A18, A19, A20, A21, A22, A25, A26, A27, A31, A32, A34, A37, A39, A40, A42, A44, A45, A46, A47, A48, A49, A50, A51, A52, A53, B1**.

Plutella xylostella = Plutella xylostella (diamond back moth) artificial diet MTP test; settings: 144 h, 200 ppm (concentration in well 18 ppm), L2 larvae, larval mortality and growth regulation after 6 days
Description: (§1) Plutella xylostella (Diamond Back Moth): 24-well microtiter plate (MTP) with artificial diet was treated with test solutions at an application rate of 200 ppm (concentration in well 18 ppm) by pipetting. After drying, the MTPs were infested with L2 larvae (7-12 per well). After an incubation period of 6 days, samples were checked for larval mortality and growth regulation.

Spodoptera littoralis = Spodoptera littoralis (Egyptian cotton leafworm) cotton leaf disc spray test; settings: foliar, 72 h, 200 ppm spray on cotton leaf discs, 5 L1 larvae, mortality, feeding behavior, growth regulation 3 days after treatment
Excerpt: Spodoptera littoralis (Egyptian Cotton Leafworm) Cotton leaf discs were placed on agar in a 24-well microtiter plate and sprayed with test solutions at an application rate of 200 ppm. After drying, the leaf discs were infested with 5 L1 larvae. The samples were checked for mortality, feeding behavior, and growth regulation 3 days after treatment (DAT).

Diabrotica balteata = Diabrotica balteata (corn root worm) artificial diet MTP test; settings: 120 h, 200 ppm (concentration in well 18 ppm), L2 larvae, larval mortality and growth regulation after 5 days
Description: as §1, with “Diabrotica balteata (Corn Root Worm): A” for “Plutella xylostella (Diamond Back Moth):”, “(6-10” for “(7-12”, “5” for “6”

Row | SMILES | pest or weed control at 200 ppm (Heliothis virescens) | pest or weed control at 200 ppm (Plutella xylostella) | pest or weed control at 200 ppm (Spodoptera littoralis) | pest or weed control at 200 ppm (Diabrotica balteata)
1 | CSC1(C(=O)NCc2ccc(C3=COC(c4cc(Cl)cc(Cl)c4)(C(F)(F)F)C3)cc2Cl)CC1 (centres unmarked) [Compound A49, N-[[2-chloro-4-[2-(3,5-dichlorophenyl)-2-(trifluoromethyl)-3H-furan-4-yl]phenyl]methyl]-1-methylsulfanyl-cyclopropanecarboxamide] | ≥ 80% | ≥ 80% | ≥ 80% | 
2 | CCSC(SCC)C(=O)NCc1ccc(C2=COC(c3cc(Cl)cc(Cl)c3)(C(F)(F)F)C2)cc1Cl (centres unmarked) [Compound A53, N-[[2-chloro-4-[2-(3,5-dichlorophenyl)-2-(trifluoromethyl)-3H-furan-4-yl]phenyl]methyl]-2,2-bis(ethylsulfanyl)acetamide] | ≥ 80% | ≥ 80% | ≥ 80% | ≥ 80%
3 | O=C(CCC(=O)c1ccccc1)NCc1ccc(C2=COC(c3cc(Cl)cc(Cl)c3)(C(F)(F)F)C2)cc1Cl (centres unmarked) [Compound A13, N-[[2-chloro-4-[2-(3,5-dichlorophenyl)-2-(trifluoromethyl)-3H-furan-4-yl]phenyl]methyl]-4-oxo-4-phenyl-butanamide] | ≥ 80% | ≥ 80% | ≥ 80% | 
4 | O=C(NCc1ccc(C2=COC(c3cc(Cl)cc(Cl)c3)(C(F)(F)F)C2)cc1Cl)c1ccc2c(c1)OCCCO2 (centres unmarked) [Compound A32, N-[[2-chloro-4-[2-(3,5-dichlorophenyl)-2-(trifluoromethyl)-3H-furan-4-yl]phenyl]methyl]-3,4-dihydro-2H-1,5-benzodioxepine-7-carboxamide] | ≥ 80% |  |  | 
5 | O=C(/C=C/c1ccccc1F)NCc1ccc(C2=COC(c3cc(Cl)cc(Cl)c3)(C(F)(F)F)C2)cc1Cl (centres unmarked) [Compound A16, (E)-N-[[2-chloro-4-[2-(3,5-dichlorophenyl)-2-(trifluoromethyl)-3H-furan-4-yl]phenyl]methyl]-3-(2-fluorophenyl)prop-2-enamide] | ≥ 80% |  |  | 
6 | O=C(CCN1C(=O)c2ccccc2C1=O)NCc1ccc(C2=COC(c3cc(Cl)cc(Cl)c3)(C(F)(F)F)C2)cc1Cl (centres unmarked) [Compound A22, N-[[2-chloro-4-[2-(3,5-dichlorophenyl)-2-(trifluoromethyl)-3H-furan-4-yl]phenyl]methyl]-3-(1,3-dioxoisoindolin-2-yl)propanamide] | ≥ 80% | ≥ 80% | ≥ 80% | ≥ 80%
7 | O=C(NCc1ccc(C2=COC(c3cc(Cl)cc(Cl)c3)(C(F)(F)F)C2)cc1Cl)c1ncoc1-c1ccccc1 (centres unmarked) [Compound A38, N-[[2-chloro-4-[2-(3,5-dichlorophenyl)-2-(trifluoromethyl)-3H-furan-4-yl]phenyl]methyl]-5-phenyl-oxazole-4-carboxamide] |  |  | ≥ 80% | 
8 | Cc1cccnc1C(=O)NCc1ccc(C2=COC(c3cc(Cl)cc(Cl)c3)(C(F)(F)F)C2)cc1Cl (centres unmarked) [Compound A39, N-[[2-chloro-4-[2-(3,5-dichlorophenyl)-2-(trifluoromethyl)-3H-furan-4-yl]phenyl]methyl]-3-methyl-pyridine-2-carboxamide] | ≥ 80% | ≥ 80% | ≥ 80% | ≥ 80%
9 | O=C(NCc1ccc(C2=COC(c3cc(Cl)cc(Cl)c3)(C(F)(F)F)C2)cc1Cl)c1ccc2nsnc2c1 (centres unmarked) [Compound A21, N-[[2-chloro-4-[2-(3,5-dichlorophenyl)-2-(trifluoromethyl)-3H-furan-4-yl]phenyl]methyl]-2,1,3-benzothiadiazole-5-carboxamide] | ≥ 80% |  |  | 
10 | O=C(NCc1ccc(C2=COC(c3cc(Cl)cc(Cl)c3)(C(F)(F)F)C2)cc1Cl)c1ccc2sccc2c1 (centres unmarked) [Compound A37, N-[[2-chloro-4-[2-(3,5-dichlorophenyl)-2-(trifluoromethyl)-3H-furan-4-yl]phenyl]methyl]benzothiophene-5-carboxamide] | ≥ 80% |  |  | 
11 | O=C(CSc1nc2ccccc2[nH]1)NCc1ccc(C2=COC(c3cc(Cl)cc(Cl)c3)(C(F)(F)F)C2)cc1Cl (centres unmarked) [Compound A12, 2-(1H-benzimidazol-2-ylsulfanyl)-N-[[2-chloro-4-[2-(3,5-dichlorophenyl)-2-(trifluoromethyl)-3H-furan-4-yl]phenyl]methyl]acetamide] | ≥ 80% | ≥ 80% |  | 
12 | O=C(NCc1ccc(C2=COC(c3cc(Cl)cc(Cl)c3)(C(F)(F)F)C2)cc1Cl)c1ccc(O)c(F)c1 (centres unmarked) [Compound A52, N-[[2-chloro-4-[2-(3,5-dichlorophenyl)-2-(trifluoromethyl)-3H-furan-4-yl]phenyl]methyl]-3-fluoro-4-hydroxy-benzamide] | ≥ 80% | ≥ 80% |  | 
13 | O=C(CCc1ccccc1)NCc1ccc(C2=COC(c3cc(Cl)cc(Cl)c3)(C(F)(F)F)C2)cc1Cl (centres unmarked) [Compound A09, N-[[2-chloro-4-[2-(3,5-dichlorophenyl)-2-(trifluoromethyl)-3H-furan-4-yl]phenyl]methyl]-3-phenyl-propanamide] | ≥ 80% | ≥ 80% |  | ≥ 80%
14 | O=C(COc1ccc(Cl)cc1)NCc1ccc(C2=COC(c3cc(Cl)cc(Cl)c3)(C(F)(F)F)C2)cc1Cl (centres unmarked) [Compound A25, N-[[2-chloro-4-[2-(3,5-dichlorophenyl)-2-(trifluoromethyl)-3H-furan-4-yl]phenyl]methyl]-2-(4-chlorophenoxy)acetamide] | ≥ 80% |  |  | 
15 | O=C(NCc1ccc(C2=COC(c3cc(Cl)cc(Cl)c3)(C(F)(F)F)C2)cc1Cl)c1cnnc2ccccc12 (centres unmarked) [Compound A34, N-[[2-chloro-4-[2-(3,5-dichlorophenyl)-2-(trifluoromethyl)-3H-furan-4-yl]phenyl]methyl]cinnoline-4-carboxamide] | ≥ 80% | ≥ 80% |  | 
16 | O=C(/C=C/c1ccco1)NCc1ccc(C2=COC(c3cc(Cl)cc(Cl)c3)(C(F)(F)F)C2)cc1Cl (centres unmarked) [Compound A10, (E)-N-[[2-chloro-4-[2-(3,5-dichlorophenyl)-2-(trifluoromethyl)-3H-furan-4-yl]phenyl]methyl]-3-(2-furyl)prop-2-enamide] | ≥ 80% | ≥ 80% |  | 
17 | Cc1onc(-c2ccccc2)c1C(=O)NCc1ccc(C2=COC(c3cc(Cl)cc(Cl)c3)(C(F)(F)F)C2)cc1Cl (centres unmarked) [Compound A45, N-[[2-chloro-4-[2-(3,5-dichlorophenyl)-2-(trifluoromethyl)-3H-furan-4-yl]phenyl]methyl]-5-methyl-3-phenyl-isoxazole-4-carboxamide] | ≥ 80% |  |  | 
18 | O=C(/C=C/c1ccccc1Cl)NCc1ccc(C2=COC(c3cc(Cl)cc(Cl)c3)(C(F)(F)F)C2)cc1Cl (centres unmarked) [Compound A17, (E)-N-[[2-chloro-4-[2-(3,5-dichlorophenyl)-2-(trifluoromethyl)-3H-furan-4-yl]phenyl]methyl]-3-(2-chlorophenyl)prop-2-enamide] | ≥ 80% |  |  | 
19 | O=C(NCc1ccc(C2=COC(c3cc(Cl)cc(Cl)c3)(C(F)(F)F)C2)cc1Cl)c1cc(Cl)ccc1Cl (centres unmarked) [Compound A28, 2,5-dichloro-N-[[2-chloro-4-[2-(3,5-dichlorophenyl)-2-(trifluoromethyl)-3H-furan-4-yl]phenyl]methyl]benzamide] |  | ≥ 80% |  | 
20 | CSc1ccc(C(=O)NCc2ccc(C3=COC(c4cc(Cl)cc(Cl)c4)(C(F)(F)F)C3)cc2Cl)cc1 (centres unmarked) [Compound A27, N-[[2-chloro-4-[2-(3,5-dichlorophenyl)-2-(trifluoromethyl)-3H-furan-4-yl]phenyl]methyl]-4-methylsulfanyl-benzamide] | ≥ 80% |  |  | ≥ 80%
21 | O=C(NCc1ccc(C2=COC(c3cc(Cl)cc(Cl)c3)(C(F)(F)F)C2)cc1Cl)c1ccc(-c2ccccn2)s1 (centres unmarked) [Compound A42, N-[[2-chloro-4-[2-(3,5-dichlorophenyl)-2-(trifluoromethyl)-3H-furan-4-yl]phenyl]methyl]-5-(2-pyridyl)thiophene-2-carboxamide] | ≥ 80% |  |  | 
22 | O=C(NCc1ccc(C2=COC(c3cc(Cl)cc(Cl)c3)(C(F)(F)F)C2)cc1Cl)c1c[nH]cn1 (centres unmarked) [Compound A31, N-[[2-chloro-4-[2-(3,5-dichlorophenyl)-2-(trifluoromethyl)-3H-furan-4-yl]phenyl]methyl]-1H-imidazole-4-carboxamide] | ≥ 80% | ≥ 80% | ≥ 80% | 
